Results as given in patent US20230055441A1 (NONO INC., priority 2020, published 2023).
Entries after “also recorded” stand apart in the source; their conditions may differ. Square brackets hold non-standard residues; d marks the D form. Ends that are not written are not given here. Peptide text beside a SMILES is read from it.

Experiments:
PSD95PDZ2 [1] = biological target: T1, PSD95PDZ2 (Homo sapiens, UniProt P78352); experiment: direct ELISA; biotinylated peptide
Target sequence in this assay (P78352 160-246): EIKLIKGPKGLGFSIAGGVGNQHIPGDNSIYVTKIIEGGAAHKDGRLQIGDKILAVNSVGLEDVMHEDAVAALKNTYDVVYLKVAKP

TNK = TNK in phosphate buffered saline alone
plasmin = experiment: digested with plasmin
tPA = tPA in PBS buffer (no plasma)
PSD95PDZ2 [2] = biological target: T1, PSD95PDZ2; experiment: Competitive ELISA with biotinylated-NA-1 on coated PSD95PDZ2; assay type: binding
Protocol: Binding was evaluated with a competitive ELISA assay. A plate was coated with 1 ug/ml PSD95PDZ2 in 50 mM bicarbonate buffer overnight at 4C. The plate was blocked in 2% BSA in PBST (0.05%) for 2 h at room temperature. […] The wells were washed again, and then incubated with TMB solution for 10 min. The reaction was stopped with 100 ul H2SO4. Absorbance was determined at 450 nm with the synergy H1 reader.
Target sequence in this assay (P78352 160-246 limits assumed): as the sequence (P78352 160-246) above

[3] = Pharmacokinetic analysis in rats by route (subcutaneous, pulmonary instillation, intramuscular, intravenous); conditions: rat; for Cmax / plasma concentration, pulmonary instillation / plasma exposure, pulmonary instillation / AUC / plasma exposure, subcutaneous / Cmax, subcutaneous: 25 mg/kg (Table 4); for plasma exposure, pulmonary instillation: versus intrapulmonary NA-1; for AUC / plasma exposure, subcutaneous / Cmax, subcutaneous: NA-1 versus IV NA-1, others versus subcutaneous NA-1
Protocol: Rats were anaesthetized in the supine position (Isoflurane 1.5-%) and allowed to breath spontaneously in 0.5 L/min 02. The left femoral artery was cannulated for blood sampling.
Test agents were prepared at the stablish concentration in a total volume of vehicle. Pulmonary instillation was performed by intubation with a 14G catheter connected to a 1 cc syringe and the test agent will be delivered through the catheter. Subcutaneous (SQ or SC) injection was injected into the area of the left flank, no more than 2 ml of total volume per site.
Each dose was evaluated in 3 rats for each administration strategy. […] For the first experiment, evaluating two different administration routes (SQ and PI), blood samples were collected at 8 different timepoints: Pre and at 7 additional times (1, 2.5, 5, 10, 15, 30, 60 min) post dose (250 ul/sample). For the 24-hour PK curve experiment, blood samples were collected at 11 timepoints: Pre, 2.5, 5, 10, 15, 30, 60 min, 3 hr, 6 hr, 12 hr and 24 hr.
HPLC quantification: Plasma was separated from blood and stored at −80° C. until used. Each sample was precipitated by adding 1M HCl (10 ul/100 ul sample) at >80° C., centrifuged (12,000 rpm×15 min) and the precipitate collected. A 5 cm C—18 RP-HPLC column was equilibrated with 10% acetonitrile with 0.1% TFA at 40° C., the sample was injected and run in an Agilent 1260 Infinity Quaternary LC System. (30 min at 1.5 mL/min; gradient from 10% to 35% acetonitrile in 0.1% TFA; Absorbance detected at 220 nm). Standard curves for HPLC were generated from plasma samples spiked with known quantities of test agent.

PSD95PDZ2 [4] = biological target: T1, PSD95PDZ2; experiment: competitive ELISA, PSD95PDZ2 coated, competitor biotinylated NA-1
Target sequence in this assay (P78352 160-246 limits assumed): as the sequence (P78352 160-246) above

[5] = tested on: TNK-tissue plasminogen activator; experiment: human plasma with TNK
[6] = tested on: TNK-tissue plasminogen activator; experiment: rat plasma with TNK
PSD95PDZ2 [7] = biological target: T1, PSD95PDZ2; experiment: direct ELISA; biotinylated peptide; unit printed "um"
Target sequence in this assay (P78352 160-246): as above

[8] = Pharmacokinetics after subcutaneous injection in non-human primates; assay type: in vivo, cynomolgus macaques; conditions: for plasma concentrations: cynomolgus macaques
Excerpt: All values are presented as mean±SD; Statistical significance when compared to nerinetide alone is indicated as * (one-way ANOVA with post-hoc turkey's correction, *P<0.01). (Cmax: maximum plasma concentrations based on the extrapolated time-zero value; t1/2: half-life at terminal phase; tmax: time to reach Cmax; AUC0-t: area under the concentration-time curve from 0 to the last measured value; AUC0-inf: extrapolated area under the concentration-time curve from 0 to infinity; Cl: total clearance). Data is presented as mean±SD of three-four animals per group. The (−) represent data not reported due to an extrapolation of the AUC0-inf greater than 20% and R^2 lower than 0.9.

histamine = experiment: Histamine release in rat plasma (histamine ELISA)
Protocol: Blood samples were collected at 11 timepoints: Pre, 2.5, 5, 10, 15, 30, 60 min, 3 hr, 6 hr, 12 hr and 24 hr. Histamine levels were quantified by using commercially available histamine ELISA assay kit (Histamine ELISA-H1531-K01, Eagle Bioscience). The plates were coated with the plasma samples (50 ul/well) incubated for 60 minutes at room temperature on an orbital shaker with medium frequency. Then 100 ul of enzyme conjugate was added to the wells and incubated for 20 minutes at room temperature. Samples were washed again, and then incubated for 25 minutes at room temperature with TMB solution. The reaction was stopped with 100 ul H2SO4. Absorbance was determined on an ELISA plate reader at 450 nm.
Blood samples were taken at pre-injection and at 0, 1, 2.5, 5, 10, 15, 30- and 60-minutes post dose and used for histamine levels quantification using commercially available kit.

[9] = Plasma concentrations 15 minutes after subcutaneous dose in rats of the 3-pial vessel occlusion study; assay type: in vivo; conditions: rat
Protocol: Unlike transient models of stroke in rats where much lower doses are required for neuroprotection, neuroprotection in 3 pial vessel occlusion models of stroke seems to require plasma concentrations of nerinetide at or above 2 ug/mL (or molar equivalent). […] Although the plasma levels continue to increase through about 3 hours then decrease, it is important to achieve rapid accumulation in the blood and brain for emergency indications like stroke. […] For pharmacokinetic sample analysis, calibration standard samples at concentrations of 0, 2.5, 5, 10, 15, 20 and 40 ug/mL of nerinetide were prepared by spiking 1 μL of the appropriate stock to 100 μL of plasma. […] Data is presented as mean±SD.

[10] = subcutaneous 25 mg/kg versus nerinetide IV infusion
[11] = listed as D-Tat-L-IESDV, 25 mg/kg
[12] = subcutaneous 25, 8.3, 2.8 mg/kg

Compound: D-NA-1 NA1 (Bio-D-NA1)
- EC50 (PSD95PDZ2 [1]): 1380 nM

Compound: YGRKKRRQRRRKLSSIESDV
- not cleaved (TNK): not directly cleaved
- fragment found (plasmin): RRQRRRKLSSIESDV; also recorded: RQRRRKLSSIESDV; also recorded: QRRRKLSSIESDV; also recorded: RRKLSSIESDV; also recorded: RKLSSIESDV; also recorded: KLSSIESDV; also recorded: LSSIESDV
- not cleaved (tPA): no degradation

Compound: CC[C@@H](C)[C@@H](NC(=O)[C@@H](CO)NC(=O)[C@@H](CO)NC(=O)[C@@H](CC(C)C)NC(=O)[C@@H](CCCCN)NC(=O)[C@@H](CCCNC(=N)N)NC(=O)[C@@H](CCCNC(=N)N)NC(=O)[C@@H](CCCNC(=N)N)NC(=O)[C@@H](CCC(N)=O)NC(=O)[C@@H](CCCNC(=N)N)NC(=O)[C@@H](CCCNC(=N)N)NC(=O)[C@@H](CCCCN)NC(=O)[C@@H](CCCCN)NC(=O)[C@@H](CCCNC(=N)N)NC(=O)CNC(=O)[C@H](N)Cc1ccc(O)cc1)C(=O)N[C@H](CCC(=O)O)C(=O)N[C@H](CO)C(=O)N[C@H](CC(=O)O)C(=O)N[C@@H](C(=O)O)C(C)C [D-NA-1, ygrkkrrqrrrklssiesdv] (H-[dY]G[dR][dK][dK][dR][dR][dQ][dR][dR][dR][dK][dL][dS][dS][dI][dE][dS][dD][dV]-OH)
- EC50 compared among NA-1, D-Tat-L-2B9C and D-NA-1 (PSD95PDZ2 [2]; FIG. 12): about ten-fold lower
- Cmax / plasma concentration, pulmonary instillation [3]: higher plasma concentration
- plasma exposure, pulmonary instillation [3]: greater plasma exposure
- AUC / plasma exposure, subcutaneous [3]: also increased Cmax and AUC relative to subcutaneous NA-1 but not to the same extent
- Cmax, subcutaneous [3]: also increased Cmax and AUC relative to subcutaneous NA-1 but not to the same extent

Compound: D-NA-1 (peptide)
- fold difference of EC50 against NA-1 and D-Tat-L-2B9C (PSD95PDZ2 [4]): 10 fold

Compound: ygrkkrrqrrrKLSSIESDV ([dY]G[dR][dK][dK][dR][dR][dQ][dR][dR][dR]KLSSIESDV)
- not cleaved [5]: stable
- not cleaved (tPA): no degradation
- not cleaved [6]: stable

Compound: D-Tat-L-NA-1 (Bio-D-Tat-L-NA1)
- EC50 (PSD95PDZ2 [7]): 139 nM

Compound: CC[C@H](C)[C@H](NC(=O)[C@@H](CO)NC(=O)[C@@H](CO)NC(=O)[C@@H](CC(C)C)NC(=O)[C@@H](CCCCN)NC(=O)[C@@H](CCCNC(=N)N)NC(=O)[C@@H](CCCNC(=N)N)NC(=O)[C@@H](CCCNC(=N)N)NC(=O)[C@@H](CCC(N)=O)NC(=O)[C@@H](CCCNC(=N)N)NC(=O)[C@@H](CCCNC(=N)N)NC(=O)[C@@H](CCCCN)NC(=O)[C@@H](CCCCN)NC(=O)[C@@H](CCCNC(=N)N)NC(=O)CNC(=O)[C@H](N)Cc1ccc(O)cc1)C(=O)N[C@@H](CCC(=O)O)C(=O)N[C@@H](CO)C(=O)N[C@@H](CC(=O)O)C(=O)N[C@H](C(=O)O)C(C)C [NA-3, ygrkkrrqrrrklsslESDV] (H-[dY]G[dR][dK][dK][dR][dR][dQ][dR][dR][dR][dK][dL][dS][dS]IESDV-OH)
- plasma concentrations ([8]; 7.6 mg/Kg subcutaneous): able to achieve plasma concentrations higher than those demonstrated to be effective in humans
- plasma concentrations ([8]; 25 mg/kg subcutaneous): able to achieve plasma concentrations higher than those demonstrated to be effective in humans
- AUC [8, 10]: greater Cmax and AUC than nerinetide IV infusion
- Cmax [8, 10]: greater Cmax and AUC than nerinetide IV infusion
- histamine release (histamine; 25 mg/kg SQ): resulted in histamine release but still much less than 7.6 mg/kg IV
- histamine release (histamine; subcutaneous 2.8 mg/kg): Lack of significant histamine release
- histamine release (histamine; subcutaneous 2.8 mg/kg, listed as D-Tat-L-IESDV): did not result in significant histamine release
- histamine release (histamine; subcutaneous 8.3 mg/kg): Lack of significant histamine release
- histamine release (histamine; subcutaneous 8.3 mg/kg, listed as D-Tat-L-IESDV): did not result in significant histamine release
- IC50 (PSD95PDZ2 [2]): < 5000 nM
- dose proportionality between treatment dose and Cmax ([9]; single subcutaneous administration 25, 7.6, 2.5 mg/kg): dose proportionality
- stability in plasma ([9]; subcutaneous, compared to nerinetide): higher stability in plasma
- plasma concentration at 15 min post-dose ([9]; subcutaneous, compared to nerinetide at the same dose): higher concentration at 15 min post-dose
- plasma exposure, pulmonary instillation [3]: greater plasma exposure
- Cmax / plasma concentration, pulmonary instillation ([3]; 25 mg/kg): higher plasma concentration
- Cmax / plasma concentration, pulmonary instillation [3, 11]: higher CMax than for NA-1 or D-Tat-L-2B9C
- dose dependence of AUC, subcutaneous [3, 12]: dose-dependent increasing linearly with dose
- dose dependence of Cmax, subcutaneous [3, 12]: dose-dependent increasing linearly with dose
- AUC / plasma exposure, subcutaneous ([3]; 25 mg/kg): greater plasma exposure relative to SQ NA-1
- Cmax, subcutaneous ([3]; 25 mg/kg): higher plasma concentration
- AUC / plasma exposure, subcutaneous [3, 11]: increased Cmax and AUC compared with subcutaneous NA-1
- Cmax, subcutaneous [3, 11]: increased Cmax and AUC compared with subcutaneous NA-1
